Patent US11318134B2, “Benzamide compounds” (priority 2018, dated 2022)

Key:
Bcl-XL = Bcl-XL (Homo sapiens (Human), UniProt Q07817); test: Bcl-2 protein family binding assay (Bcl2scan platform), Bcl-XL; details: BIM peptide ligand, 11-point dilution, read-out: Bc1-XL Kd (nm)
Experimental: (§1) E. coli were grown to log-phase and infected with T7 phage from a frozen stock (multiplicity of infection=0.4) and incubated with shaking at 32° C. until lysis (90-150 minutes). The lysates were centrifuged (5,000×g) and filtered (0.2 μm) to remove cell debris. […] The liganded beads were blocked with excess biotin and washed with blocking buffer (SeaBlock (Pierce), 1% BSA, 0.05% Tween 20, 1 mM DTT) to remove unbound ligand and to reduce non-specific phage binding. […] Test compounds were prepared as 100× stocks in 100% DMSO. Kds were determined using an 11-point 3-fold compound dilution series with one DMSO control point. […] The compounds were then diluted directly into the assays such that the final concentration of DMSO was 0.9%. All reactions performed in polypropylene 384-well plates. Each was a final volume of 0.02 ml. […] The BCL2 concentration in the eluates was measured by qPCR. Binding constants (Kds) were calculated with a standard dose-response curve using the Hill equation:
(§2) [formula] The Hill Slope was set to −1. Curves were fitted using a non-linear least square fit with the Levenberg-Marquardt algorithm.

RS4;11 cells = test: RS4;11 cell proliferation assay (CellTiter-Glo); type: cell-based; details: Homo sapiens, RS4-11, 48 h, read-out: RS4;11 (nM), CTG IC50
Experimental: Cell proliferation was measured using the CellTiter-Glo® Luminescent Cell Viability Assay. The assay involved the addition of a single reagent (CellTiter-Glo® Reagent) directly to cells cultured in serum-supplemented medium.
Each compound evaluated was prepared as a DMSO stock solution (10 mM). Compounds were tested in duplicate on each plate, with a 10-point serial dilution curve (1:3 dilution). Compound treatment (1.0 μL) was added from the compound dilution plate to the cell plate. The highest compound concentration was 10 μM (final), with a 0.1% final DMSO concentration. Plates were then incubated at 37° C., 5% CO2. After 48 h of compound treatment for RS4;11 or 72 h for NCI-H1963, cell plates were equilibrated at rt for approximately 30 mins. An equi-volume amount of CellTiter-Glo® Reagent (40 μL) was added to each well. […] Luminescence was recorded using a Envision plate reader according to CellTiter-Glo protocol. IC50 of each compound was calculated using GraphPad Prism by nonlinear regression analysis.

Bcl-2 = Bcl-2 (Homo sapiens (Human), UniProt P10415); test: Bcl-2 protein family binding assay (Bcl2scan platform), Bcl-2; details: BIM peptide ligand, 11-point dilution, read-out: Bc1-2 Kd (nm)
Experimental: as §1, §2

Chain of Bcl-2 (P10415 whole entry): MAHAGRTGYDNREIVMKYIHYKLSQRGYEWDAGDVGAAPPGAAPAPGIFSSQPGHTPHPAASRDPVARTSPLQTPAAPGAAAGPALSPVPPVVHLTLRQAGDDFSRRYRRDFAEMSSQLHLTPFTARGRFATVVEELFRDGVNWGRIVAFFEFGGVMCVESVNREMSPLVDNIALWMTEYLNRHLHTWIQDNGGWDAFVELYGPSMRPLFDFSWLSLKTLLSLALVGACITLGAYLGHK
Chain of Bcl-XL (Q07817 whole entry): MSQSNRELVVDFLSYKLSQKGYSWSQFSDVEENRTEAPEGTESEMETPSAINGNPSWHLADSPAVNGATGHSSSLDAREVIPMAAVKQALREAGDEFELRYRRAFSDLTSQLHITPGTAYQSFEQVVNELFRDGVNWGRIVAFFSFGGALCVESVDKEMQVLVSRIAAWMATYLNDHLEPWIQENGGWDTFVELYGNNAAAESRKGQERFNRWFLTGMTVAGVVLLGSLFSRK

Row | Structure (SMILES) | Kd (Bcl-XL) [nM] | IC50 (RS4;11 cells) [nM] | Kd (Bcl-2) [nM]
1 | CC1(C)CCC(CN2CCN(c3ccc(C(=O)NS(=O)(=O)c4ccc(NCC5CCOCC5)c([N+](=O)[O-])c4)c(Oc4cnc5[nH]ccc5c4)c3)CC2)=C(C23CC(Cl)(C2)C3)C1 [Example 1, 2-(1H-Pyrrolo[2,3-b]pyridin-5-yl-oxy)-4-(4-((2-(3-chlorobicyclo[1.1.1]pentan-1-yl)-4,4-dimethylcyclohex-1-en-yl)methyl)piperazin-1-yl)-N-(3-nitro-4-((tetrahydro-2H-pyran-4-yl)methylamino)phenylsulfonyl)benzamide] | > 100 | < 100 | < 10
2 | CC1(C)CCC(CN2CCN(c3ccc(C(=O)NS(=O)(=O)c4ccc(NCC5CCOCC5)c([N+](=O)[O-])c4)c(Oc4cnc5[nH]ccc5c4)c3)CC2)=C(C23CC(C)(C2)C3)C1 [Example 9, 2-(1H-pyrrolo[2,3-b]pyridin-5-yloxy)-4-(4-((4,4-dimethyl-2-(3-methylbicyclo[1.1.1]pentan-1-yl)cyclohex-1-enyl)methyl)piperazin-1-yl)-N-(3-nitro-4-((tetrahydro-2H-pyran-4-yl)methylamino)phenylsulfonyl)benzamide] | > 100 | < 100 | < 10
3 | CC1(C)CCC(CN2CCN(c3ccc(C(=O)NS(=O)(=O)c4ccc(NCC5CCOCC5)c([N+](=O)[O-])c4)c(Oc4cnc5[nH]ccc5c4)c3)CC2)=C(C23CC(F)(C2)C3)C1 [Example 10, 2-(1H-pyrrolo[2,3-b]pyridin-5-yloxy)-4-(4-((2-(3-fluorobicyclo[1.1.1]pentan-1-yl)-4,4-dimethylcyclohex-1-enyl)methyl)piperazin-1-yl)-N-(3-nitro-4-((tetrahydro-2H-pyran-4-yl)methylamino)phenylsulfonyl)benzamide] | > 100 | < 100 | < 10
4 | CC1(C)CCC(CN2CCN(c3ccc(C(=O)NS(=O)(=O)c4ccc(NCC5CC6(CCOCC6)C5)c([N+](=O)[O-])c4)c(Oc4cnc5[nH]ccc5c4)c3)CC2)=C(C23CC(C)(C2)C3)C1 [Example 11, 2-((1H-pyrrolo[2,3-b]pyridin-5-yl)oxy)-N-((4-(((7-oxaspiro[3.5]nonan-2-yl)methyl)amino)-3-nitrophenyl)sulfonyl)-4-(4-((4,4-dimethyl-2-(3-methylbicyclo[1.1.1]pentan-1-yl)cyclohex-1-en-1-yl)methyl)piperazin-1-yl)benzamide] | > 100 | < 100 | < 10
5 | CN1CCC(F)(CNc2ccc(S(=O)(=O)NC(=O)c3ccc(N4CCN(CC5=C(C67CC(C)(C6)C7)CC(C)(C)CC5)CC4)cc3Oc3cnc4[nH]ccc4c3)cc2[N+](=O)[O-])CC1 [Example 13, 2-((1H-pyrrolo[2,3-b]pyridin-5-yl)oxy)-4-(4-((4,4-dimethyl-2-(3-methylbicyclo[1.1.1]pentan-1-yl)cyclohex-1-en-1-yl)methyl)piperazin-1-yl)-N-((4-(((4-fluoro-1-methylpiperidin-4-yl)methyl)amino)-3-nitrophenyl)sulfonyl)benzamide] | > 100 | < 100 | < 10
6 | CC1(C)CCC(CN2CCN(c3ccc(C(=O)NS(=O)(=O)c4ccc(OCC5(F)CCOCC5)c([N+](=O)[O-])c4)c(Oc4cnc5[nH]ccc5c4)c3)CC2)=C(C23CC(C)(C2)C3)C1 [Example 16, 2-((1H-pyrrolo[2,3-b]pyridin-5-yl)oxy)-4-(4-((4,4-dimethyl-2-(3-methylbicyclo[1.1.1]pentan-1-yl)cyclohex-1-en-1-yl)methyl)piperazin-1-yl)-N-((4-((4-fluorotetrahydro-2H-pyran-4-yl)methoxy)-3-nitrophenyl)sulfonyl)benzamide] | > 100 | < 100 | < 10
7 | CN1CCOC(CNc2ccc(S(=O)(=O)NC(=O)c3ccc(N4CCN(CC5=C(C67CC(C)(C6)C7)CC(C)(C)CC5)CC4)cc3Oc3cnc4[nH]ccc4c3)cc2[N+](=O)[O-])C1 (centres unmarked) [Example 17, 2-((1H-pyrrolo[2,3-b]pyridin-5-yl)oxy)-4-(4-((4,4-dimethyl-2-(3-methylbicyclo[1.1.1]pentan-1-yl)cyclohex-1-en-1-yl)methyl)piperazin-1-yl)-N-((4-(((4-methylmorpholin-2-yl)methyl)amino)-3-nitrophenyl)sulfonyl)benzamide] | 10 to 100 | < 100 | < 10
8 | CN1CCO[C@H](CNc2ccc(S(=O)(=O)NC(=O)c3ccc(N4CCN(CC5=C(C67CC(C)(C6)C7)CC(C)(C)CC5)CC4)cc3Oc3cnc4[nH]ccc4c3)cc2[N+](=O)[O-])C1 [Example 18, (R)-2-((1H-pyrrolo[2,3-b]pyridin-5-yl)oxy)-4-(4-((4,4-dimethyl-2-(3-methylbicyclo[1.1.1]pentan-1-yl)cyclohex-1-en-1-yl)methyl)piperazin-1-yl)-N-((4-(((4-methylmorpholin-2-yl)methyl)amino)-3-nitrophenyl)sulfonyl)benzamide] | – | < 100 | –
9 | CN1CCO[C@@H](CNc2ccc(S(=O)(=O)NC(=O)c3ccc(N4CCN(CC5=C(C67CC(C)(C6)C7)CC(C)(C)CC5)CC4)cc3Oc3cnc4[nH]ccc4c3)cc2[N+](=O)[O-])C1 [Example 19, (S)-2-((1H-pyrrolo[2,3-b]pyridin-5-yl)oxy)-4-(4-((4,4-dimethyl-2-(3-methylbicyclo[1.1.1]pentan-1-yl)cyclohex-1-en-1-yl)methyl)piperazin-1-yl)-N-((4-(((4-methylmorpholin-2-yl)methyl)amino)-3-nitrophenyl)sulfonyl)benzamide] | – | < 100 | –
10 | CCC12CC(C3=C(CN4CCN(c5ccc(C(=O)NS(=O)(=O)c6ccc(NCC7CCOCC7)c([N+](=O)[O-])c6)c(Oc6cnc7[nH]ccc7c6)c5)CC4)CCC(C)(C)C3)(C1)C2 [Example 23, 2-(1H-pyrrolo[2,3-b]pyridin-5-yloxy)-4-(4-((2-(3-ethylbicyclo[1.1.1]pentan-1-yl)-4,4-dimethylcyclohex-1-enyl)methyl)piperazin-1-yl)-N-(3-nitro-4-((tetrahydro-2H-pyran-4-yl)methylamino)phenylsulfonyl)benzamide] | > 100 | < 100 | < 10
11 | CCC12CC(C3=C(CN4CCN(c5ccc(C(=O)NS(=O)(=O)c6ccc(NCC7(F)CCOCC7)c([N+](=O)[O-])c6)c(Oc6cnc7[nH]ccc7c6)c5)CC4)CCC(C)(C)C3)(C1)C2 [Example 25, 2-((1H-pyrrolo[2,3-b]pyridin-5-yl)oxy)-4-(4-((2-(3-ethylbicyclo[1.1.1]pentan-1-yl)-4,4-dimethylcyclohex-1-en-1-yl)methyl)piperazin-1-yl)-N-((4-(((4-fluorotetrahydro-2H-pyran-4-yl)methyl)amino)-3-nitrophenyl)sulfonyl)benzamide] | > 100 | < 100 | < 10
12 | CCC12CC(C3=C(CN4CCN(c5ccc(C(=O)NS(=O)(=O)c6ccc(OCC7(F)CCOCC7)c([N+](=O)[O-])c6)c(Oc6cnc7[nH]ccc7c6)c5)CC4)CCC(C)(C)C3)(C1)C2 [Example 26, 2-((1H-pyrrolo[2,3-b]pyridin-5-yl)oxy)-4-(4-((2-(3-ethylbicyclo[1.1.1]pentan-1-yl)-4,4-dimethylcyclohex-1-en-1-yl)methyl)piperazin-1-yl)-N-((4-((4-fluorotetrahydro-2H-pyran-4-yl)methoxy)-3-nitrophenyl)sulfonyl)benzamide] | > 100 | < 100 | < 10
13 | CCC12CC(C3=C(CN4CCN(c5ccc(C(=O)NS(=O)(=O)c6ccc(NC[C@H]7CC[C@](C)(O)CC7)c([N+](=O)[O-])c6)c(Oc6cnc7[nH]ccc7c6)c5)CC4)CCC(C)(C)C3)(C1)C2 [Example 27, 2-((1H-pyrrolo[2,3-b]pyridin-5-yl)oxy)-4-(4-((2-(3-ethylbicyclo[1.1.1]pentan-1-yl)-4,4-dimethylcyclohex-1-en-1-yl)methyl)piperazin-1-yl)-N-((4-((((1r,4r)-4-hydroxy-4-methylcyclohexyl)methyl)amino)-3-nitrophenyl)sulfonyl)benzamide] | > 100 | < 100 | < 10
14 | CC1(C)CCC(CN2CCN(c3ccc(C(=O)NS(=O)(=O)c4ccc(NCC5CCOCC5)c([N+](=O)[O-])c4)c(Oc4cnc5[nH]ccc5c4)c3)CC2)=C(C23CC(C(F)(F)F)(C2)C3)C1 [Example 28, 2-((1H-pyrrolo[2,3-b]pyridin-5-yl)oxy)-4-(4-((4,4-dimethyl-2-(3-(trifluoromethyl)bicyclo[1.1.1]pentan-1-yl)cyclohex-1-en-1-yl)methyl)piperazin-1-yl)-N-((3-nitro-4-(((tetrahydro-2H-pyran-4-yl)methyl)amino)phenyl)sulfonyl)benzamide] | > 100 | < 100 | < 10
